Reference: patent publication US9394303B2, “Small molecule inhibitors of MCL-1 and uses thereof” (priority 2014, dated 2016)
Entries after “also recorded” stand apart in the source; their conditions may differ. Like-named read-outs stand apart in the source and are kept apart here.

Key:
[1] = tested on: Eμ-myc lymphoma cells overexpressing Bcl-2; test: Eμ-myc lymphoma cell killing; type: cell-based, mice; settings: FIG. 9
Description: (§1) The specificity and selectivity of this class Mcl-1 inhibitors was further confirmed by using cell lines developed by retroviral transduction of lymphoma cells isolated from Eμ-myc transgenic mice which survival depends on the expression of individual prosurvival protein (see, e.g., Whitecross K F, Alsop A E, Cluse L A, Wiegmans A, Banks K M, et al. 2009. […].

[2] = tested on: Eμ-myc lymphoma cells overexpressing Bcl-xL; test: Eμ-myc lymphoma cell killing; type: cell-based, mice; settings: FIG. 9
Description: as §1

Mcl-1 [3] = target: T1, Mcl-1 (Homo sapiens (Human), UniProt Q07820); settings: cited from earlier work
Mcl-1 [4] = target: T1, Mcl-1; settings: for did not bind to Mcl-1 up to: highest concentration tested
Bcl-2 = Bcl-2 (Homo sapiens, UniProt P10415); test: Fluorescence polarization-based competitive binding assay (FAM-BID tracer)
Bcl-xL = Bcl-xL (Homo sapiens (Human), UniProt Q07817, DEL45-85); test: as above; settings: for Ki: Table 2, tested up to 20 μM, read-out: Bcl-XL Ki ± SD
[5] = tested on: Eμ-myc lymphomas overexpressing Mcl-1; test: Eμ-myc lymphoma cell killing; type: cell-based, mice; settings: FIG. 9
Description: as §1

[6] = read-out: Bcl-2 Ki ± SD; Table 2; tested up to 20 μM
[7] = Table 2; tested up to 20 μM; read-out: Bcl-2 Ki ± SD

Chain of Bcl-2 (P10415 whole entry, looked up): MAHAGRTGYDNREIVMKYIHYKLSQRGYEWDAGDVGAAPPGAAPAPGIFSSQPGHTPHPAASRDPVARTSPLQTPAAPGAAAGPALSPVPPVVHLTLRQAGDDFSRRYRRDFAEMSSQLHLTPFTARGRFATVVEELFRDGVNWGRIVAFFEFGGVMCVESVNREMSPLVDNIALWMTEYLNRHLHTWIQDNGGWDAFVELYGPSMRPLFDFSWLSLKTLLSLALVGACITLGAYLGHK
Chain of Bcl-xL (Q07817 with tags, fused parts or gaps DEL45-85): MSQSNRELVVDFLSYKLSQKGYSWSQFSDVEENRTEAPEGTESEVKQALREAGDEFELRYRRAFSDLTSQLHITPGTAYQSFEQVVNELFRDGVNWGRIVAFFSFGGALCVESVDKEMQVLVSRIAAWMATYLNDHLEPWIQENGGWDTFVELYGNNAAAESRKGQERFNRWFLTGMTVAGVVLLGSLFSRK

SMILES: CC1(C)CCC(c2ccc(Cl)cc2)=C(CN2CCN(c3ccc(C(=O)NS(=O)(=O)c4ccc(N[C@H](CCN5CCOCC5)CSc5ccccc5)c(S(=O)(=O)C(F)(F)F)c4)cc3)CC2)C1 [ABT-263, reference compound]
- effect on Eμ-myc lymphoma cells dependent on Bcl-2 [1]: kills
- effect on Eμ-myc lymphoma cells dependent on Bcl-xL [2]: kills

SMILES: CN(C)CC[C@H](CSc1ccccc1)Nc1ccc(S(=O)(=O)NC(=O)c2ccc(N3CCN(Cc4ccccc4-c4ccc(Cl)cc4)CC3)cc2)cc1[N+](=O)[O-] [ABT-737]
- binding to Mcl-1 (Mcl-1 [3]): fails to bind

SMILES: Cc1nn(C)c2nc(-c3ccco3)cc(C(=O)O)c12 [Compound 3, 6-(Furan-2-yl)-1,3-dimethyl-1H-pyrazolo[3,4-b]pyridine-4-carboxylic acid]
- did not bind to Mcl-1 up to (Mcl-1 [4]): > 200 µM

SMILES: Cc1cc(C(=O)O)c2c(C)nn(C)c2n1 [Compound 5, 1,3,6-Trimethyl-1H-pyrazolo[3,4-b]pyridine-4-carboxylic acid]
- did not bind to Mcl-1 up to (Mcl-1 [4]): > 200 µM

SMILES: Cc1nn(Cc2ccccc2)c2nc(-c3ccco3)cc(C(=O)O)c12 [Compound 6, 1-Benzyl-6-(furan-2-yl)-3-methyl-1H-pyrazolo[3,4-b]pyridine-4-carboxylic acid]
- change in potency compared to 2 (Mcl-1 [4]; vs compound 2): slight increase in potency

SMILES: Cc1nn(Cc2ccc(Oc3ccccc3)cc2)c2nc(-c3ccco3)cc(C(=O)O)c12 [Compound 8, 6-(Furan-2-yl)-3-methyl-1-(4-phenoxybenzyl)-1H-pyrazolo[3,4-b]pyridine-4-carboxylic acid]
- Ki (Bcl-2; [6]): > 4 µM

SMILES: Cc1nn(Cc2ccc(Oc3ccccc3)cc2)c2nc(/C=C/c3ccccc3)cc(C(=O)O)c12 [Compound 16, (E)-3-methyl-1-(4-phenoxybenzyl)-6-styryl-1H-pyrazolo[3,4-b]pyridine-4-carboxylic acid]
- Ki (Bcl-2; [6]): 3.16 ± 1.03 µM
- Ki (Bcl-xL): 3.55 ± 0.3 µM

SMILES: Cc1cc(Oc2ccc(Cn3nc(C)c4c(C(=O)O)cc(-c5ccco5)nc43)cc2)cc(C)c1Cl [Compound 57]
- effect on Eμ-myc lymphoma cells dependent on Bcl-2 [1]: did not show effect; also recorded: not affected
- effect on Eμ-myc lymphoma cells dependent on Bcl-xL [2]: did not show effect; also recorded: not affected
- effect on Eμ-myc lymphoma cells dependent on Mcl-1 [5]: led to sensitization; also recorded: selective killing
- Ki (Bcl-2; [7]): 1.95 ± 0.2 µM
- Ki (Bcl-xL): > 5 µM
- no binding to Bcl-xL up to (Bcl-xL; highest concentration tested): > 20 µM

SMILES: Cc1nn(Cc2ccc(Oc3cccc4ccccc34)cc2)c2nc(-c3ccco3)cc(C(=O)O)c12 [Compound 58]
- Ki (Bcl-2; [7]): > 4 µM
- Ki (Bcl-xL): > 5 µM
